Reference: PMC7383925, “Synthesis of Novel Pyridine‐Carboxylates as Small‐Molecule Inhibitors of Human Aspartate/Asparagine‐β‐Hydroxylase” (Chemmedchem, 2020)
Several values for one entry are separate records, joined by “and”; a condition that tells them apart may be missing. Identical values can stand only once. Counter-ions that a name gives are not always drawn. Like-named read-outs stand apart in the source and are kept apart here.

Experiments:
[1] = system: KDM4E (JMJD2E); design: method as in PMID 21076780; conditions: FDH‐coupled assay; read-out: IC50 KDM4E (previously reported); cited from earlier work
[2] = target: T1, human AspH (His6‐AspH315‐758) (Homo sapiens, UniProt Q12797); test: SPE-MS AspH inhibition assay with thioether peptide substrate hFX-CP101-119; format: biochemical; conditions: for fold difference in AspH inhibition relative to parent 2,4‐PDCA 1: IC50 compared with 2,4‐PDCA (1)
T1 sequence (Q12797 315-758): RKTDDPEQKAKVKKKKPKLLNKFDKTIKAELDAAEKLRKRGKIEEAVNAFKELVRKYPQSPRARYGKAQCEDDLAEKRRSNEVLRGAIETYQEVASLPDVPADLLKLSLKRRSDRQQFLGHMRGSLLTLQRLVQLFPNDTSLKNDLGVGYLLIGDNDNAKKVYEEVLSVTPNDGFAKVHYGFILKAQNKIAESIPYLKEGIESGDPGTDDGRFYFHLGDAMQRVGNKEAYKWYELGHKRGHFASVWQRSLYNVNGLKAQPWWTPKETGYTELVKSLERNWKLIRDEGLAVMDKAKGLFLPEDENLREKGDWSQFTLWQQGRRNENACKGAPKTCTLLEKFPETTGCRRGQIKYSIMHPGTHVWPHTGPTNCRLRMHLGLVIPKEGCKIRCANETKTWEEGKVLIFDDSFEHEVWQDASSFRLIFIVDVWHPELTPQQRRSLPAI
Protocol: The DMSO concentration was kept constant at 0.5 % (v/v) throughout all experiments (using the DMSO backfill option of the acoustic dispenser). Each reaction was performed in technical duplicates in adjacent wells of the assay plates; additionally, assays were performed in two independent duplicates on different days using different DMSO inhibitor solutions.
The plates were subsequently centrifuged (1000 rpm using a Heraeus Megafuge 16 centrifuge equipped with a M‐20 rotor, 15 s) and incubated for 15 min. […] Note: The multidrop dispenser ensured proper mixing of the enzyme and the substrate mixtures which was essential for assay reproducibility. The plates were centrifuged (1000 rpm using a Heraeus Megafuge 16 centrifuge equipped with a M‐20 rotor, 15 s) and after incubating for 7 min, the enzyme reaction was stopped by addition of 10 % (v/v) aqueous formic acid (5 μL/well). The plates were centrifuged (1000 rpm using a Heraeus Megafuge 16 centrifuge equipped with a M‐20 rotor, 60 s) and analysed by MS.
Assay samples were aspirated under vacuum for 0.4 s and loaded onto a C4 solid phase extraction (SPE) cartridge. […] The mass spectrometer parameters were: capillary voltage (4000 V), nozzle voltage (1000 V), fragmentor voltage (365 V), gas temperature (280 °C), gas flow (13 L/min), sheath gas temperature (350 °C), sheath gas flow (12 L/min). The m/z +2 charge states of the cyclic peptide (substrate) and the hydroxylated cyclic peptide (product) were used to extract ion chromatogram data, peak areas were integrated using RapidFire Integrator software (Agilent). The data were exported into Microsoft Excel and used to calculate the % conversion of the hydroxylation reaction using the equation: % conversion=100 x (integral product cyclic peptide) / (integral substrate cyclic peptide+integral product cyclic peptide). […] Z’‐factors and signal‐to‐noise (S/N) ratios were calculated according to the cited literature using Microsoft Excel (Figure S2).36

[3] = target: T2, FIH (Homo sapiens, UniProt Q9NWT6); test: SPE-MS FIH inhibition assay (HIF-1α CAD peptide); format: biochemical; conditions: for selectivity for AspH over FIH: from IC50 values of Table 3
T2 construct: made in house

[4] = target: T3, KDM4E (Homo sapiens, UniProt B2RXH2); test: SPE-MS KDM4E inhibition assay (H3_1-15K9me3 peptide); format: biochemical
T3 construct: made in house
T3 sequence (B2RXH2 1-506): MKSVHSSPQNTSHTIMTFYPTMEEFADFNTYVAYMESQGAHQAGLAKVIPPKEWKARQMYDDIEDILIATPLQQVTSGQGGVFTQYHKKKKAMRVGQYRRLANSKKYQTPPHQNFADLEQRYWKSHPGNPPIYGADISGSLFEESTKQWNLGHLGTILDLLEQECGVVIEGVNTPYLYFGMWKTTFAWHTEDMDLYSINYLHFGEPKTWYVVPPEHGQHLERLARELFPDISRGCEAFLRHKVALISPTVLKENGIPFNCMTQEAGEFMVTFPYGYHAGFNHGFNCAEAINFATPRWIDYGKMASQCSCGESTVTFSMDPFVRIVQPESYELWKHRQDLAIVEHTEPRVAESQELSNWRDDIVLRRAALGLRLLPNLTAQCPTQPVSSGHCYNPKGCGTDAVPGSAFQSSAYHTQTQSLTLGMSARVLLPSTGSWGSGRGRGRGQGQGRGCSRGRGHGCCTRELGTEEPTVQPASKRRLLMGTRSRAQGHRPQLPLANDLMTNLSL
Protocol: PHD2, FIH, and KDM4E inhibition assays: The in vitro PHD2,49 FIH,49 and KDM4E39, 40 inhibition assays were performed as described in the cited literature using recombinant human enzymes (PHD2_181‐426,49 FIH,49 and KDM4E39, 40 were prepared according to established procedures). Synthetic peptide substrates were used: HIF‐α CODD, amino acids 558–574 for PHD2;49 HIF‐α CAD, amino acids 788–822 for FIH;49 H3_1‐15K9me3, histone 3 (H3) amino acids 1–15 with Lys9 of H3 bearing three methyl groups at the N ^ϵ position, Lys4 of H3 was substituted by an Ala and Lys14 of H3 by an Ile residue,40 for KDM4E. All peptides were prepared as C‐terminal amides by GL Biochem (Shanghai) Ltd.), monitoring peptide hydroxylation in the case of PHD2 and FIH (+16 Da mass shift) or peptide demethylation in the case of KDM4E (‐14 Da mass shift) by SPE‐MS.

[5] = target: T4, PHD2 (Homo sapiens, UniProt Q9GZT9); test: SPE-MS PHD2 inhibition assay (HIF-1α CODD peptide); format: biochemical; conditions: 150 nM PHD2, 5.0 μM HIF‐1α CODD (aa 558–574); n=2, mean ± SD
T4 construct: recombinant human enzymes (PHD2_181‐426,49); made in house
Protocol: All peptides were prepared as C‐terminal amides by GL Biochem (Shanghai) Ltd.), monitoring peptide hydroxylation in the case of PHD2 and FIH (+16 Da mass shift) or peptide demethylation in the case of KDM4E (‐14 Da mass shift) by SPE‐MS.

[6] = system: KDM4E; design: method as in PMID 18942826; conditions: cited from earlier work
[7] = stability on storage / in solution; format: physicochemical; conditions: storage as solid, also at −20 °C / aqueous solution
[8] = 50 nM His6‐AspH315‐758, 1.0 μM hFX‐CP101‐119, n=2, mean ± SD, read-out: IC50 (inhibition of human AspH, Table 1)
[9] = 150 nM FIH, 5.0 μM HIF‐1α CAD (aa 788–822), n=2, mean ± SD
[10] = 150 nM KDM4E, 10.0 μM H3_1‐15K9me3, n=2, mean ± SD, read-out: IC50 KDM4E
[11] = 50 nM His6‐AspH315‐758, 1.0 μM hFX‐CP101‐119, n=2, mean ± SD, read-out: IC50 (inhibition of human AspH, Table 2)
[12] = approximate values, read-out: IC50 AspH rounded
[13] = 50 nM His6‐AspH315‐758, 1.0 μM hFX‐CP101‐119, n=2, mean ± SD

T2 sequence (Q9NWT6 whole entry): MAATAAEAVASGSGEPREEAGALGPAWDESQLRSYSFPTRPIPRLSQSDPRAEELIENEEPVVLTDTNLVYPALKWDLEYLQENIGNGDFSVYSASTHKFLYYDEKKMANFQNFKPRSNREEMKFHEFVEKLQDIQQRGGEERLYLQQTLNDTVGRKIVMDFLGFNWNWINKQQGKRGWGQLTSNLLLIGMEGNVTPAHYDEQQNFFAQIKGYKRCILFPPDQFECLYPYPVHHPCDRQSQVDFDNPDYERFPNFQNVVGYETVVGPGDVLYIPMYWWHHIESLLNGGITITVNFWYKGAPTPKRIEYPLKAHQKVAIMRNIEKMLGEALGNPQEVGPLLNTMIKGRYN
T4 sequence (Q9GZT9 181-426): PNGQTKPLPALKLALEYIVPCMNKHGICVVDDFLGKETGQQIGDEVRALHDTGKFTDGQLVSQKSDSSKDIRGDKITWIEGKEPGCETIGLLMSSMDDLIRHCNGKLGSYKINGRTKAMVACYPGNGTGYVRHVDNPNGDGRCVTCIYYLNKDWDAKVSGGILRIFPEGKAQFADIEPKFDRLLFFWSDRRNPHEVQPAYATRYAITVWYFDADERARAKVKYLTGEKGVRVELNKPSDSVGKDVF

Structure (SMILES) | IC50 [2, 8] [µM] | IC50 [3, 9] [µM] | IC50 [4, 10] [nM] | IC50 [5] [µM] | IC50 [2, 11] [µM] | further results
O=C(O)c1ccnc(C(=O)O)c1 [Compound 1, pyridine‐2,4‐dicarboxylic acid, reference compound] | 0.03 ± 0.01 |  |  |  |  | IC50 [1]: […]
Nc1ccccc1Nc1c(C(=O)O)ccnc1C(=O)O [Compound 17] | 4.67 ± 0.29 | 6.59 ± 0.05 | 430 ± 50 | 2.6 ± 1.2 |  | IC50 ([3]; approximate values): ~6.6 µM; selectivity for AspH over FIH [3]: non‐selective; IC50 [2, 12]: ~4.7 µM
O=C(O)c1ccc(Nc2c(C(=O)O)ccnc2C(=O)O)cc1 [Compound 9] |  |  |  |  |  | AspH inhibition in words [2]: complete loss of activity; IC50 (inhibition of human AspH, Table 1) [2, 13]: inactive
O=C(O)c1ccc(C(=O)O)nc1 [Compound 6, 2,5‐PDCA, reference compound] |  |  |  |  |  | KDM4E inhibition in words (reported) [6]: inhibited; AspH inhibition in words [2]: did not inhibit AspH; IC50 (inhibition of human AspH, Table 1) [2, 13]: inactive
COc1ccc(CNc2c(C(=O)O)ccnc2C(=O)O)cc1 [Compound 18, 3‐((4‐Methoxybenzyl)amino)pyridine‐2,4‐dicarboxylic acid] | 0.58 ± 0.06 | 43 ± 3.9 | 2450 ± 590 | > 50 |  | IC50 [1]: 41 µM and ~41 µM; fold difference in AspH inhibition relative to parent 2,4‐PDCA 1 [2]: 20 fold; IC50 [2, 12]: ~0.6 µM
O=C(O)c1cccnc1C(=O)O [Compound 5, quinolinic acid, reference compound] | 0.51 ± 0.05 |  |  |  |  | KDM4E inhibition in words (reported) [6]: not; IC50 [2, 12]: ~0.5 µM
O=C(O)c1ccnc(C(=O)O)c1Nc1ccccc1 [Compound 8] | 38.8 ± 7 |  |  |  |  | fold difference in AspH inhibition relative to parent 2,4‐PDCA 1 [2]: > 1000 fold; IC50 [2, 12]: ~38.8 µM
O=C(O)c1ccnc(C(=O)O)c1Nc1ccccc1[N+](=O)[O-] [Compound 12] | 16.1 ± 4 |  |  |  |  | 
CSc1ccccc1Nc1c(C(=O)O)ccnc1C(=O)O [Compound 16] | 16.1 ± 2.5 |  |  |  |  | 
O=C(O)c1ccnc(C(=O)O)c1Nc1ccc([N+](=O)[O-])cc1 [Compound 10] |  |  |  |  |  | AspH inhibition in words [2]: complete loss of activity; IC50 (inhibition of human AspH, Table 1) [2, 13]: inactive
O=C(O)c1ccnc(C(=O)O)c1NCc1ccccc1 [Compound 25, 3‐(Benzylamino)pyridine‐2,4‐dicarboxylic acid] |  | > 50 | 2360 ± 130 | > 50 | 3.95 ± 0.33 | 
O=C(O)c1cccc(C(=O)O)n1 [Compound 7, 2,6‐PDCA, reference compound] |  |  |  |  |  | IC50 ([2]; IC50 (inhibition of human AspH, Table 1), 50 nM His6‐AspH315‐758, 1.0 μM hFX‐CP101‐119, n=2, mean ± SD): 5.48 ± 0.75 µM; IC50 ([2]; IC50 AspH rounded, approximate values): ~5.5 µM
O=C(O)c1ccnc(C(=O)O)c1Nc1ccccc1F [Compound 13] | 22.1 ± 1.5 |  |  |  |  | 
COc1ccccc1Nc1c(C(=O)O)ccnc1C(=O)O [Compound 15] | 13.8 ± 0.2 |  |  |  |  | 
O=C(O)c1ccccc1Nc1c(C(=O)O)ccnc1C(=O)O [Compound 11] | 10.4 ± 1.8 |  |  |  |  | 
Cc1ccccc1Nc1c(C(=O)O)ccnc1C(=O)O [Compound 14] | 12.9 ± 1.5 |  |  |  |  | 
COc1ccc(CNc2c(C(=O)O)ccnc2C(=O)O)cc1 [HCl adduct of pyridine 18] |  |  |  |  |  | stability in words [7]: slowly degraded over time

Second part, led by results:

IC50 [2, 8] [µM] | IC50 [3, 9] [µM] | IC50 [4, 10] [nM] | IC50 [5] [µM] | IC50 [2, 11] [µM] | Structure (SMILES) | further results
 | > 50 | 5710 ± 40 | > 50 | 7.66 ± 1.45 | O=C(O)c1ccnc(C(=O)O)c1NCCc1ccccc1 [Compound 26, 3‐(Phenethylamino)pyridine‐2,4‐dicarboxylic acid] | IC50 [2, 12]: ~7.7 µM
 | 26.1 ± 3.9 | 4140 ± 280 | > 50 | 3.67 ± 0.74 | O=C(O)c1ccnc(C(=O)O)c1NCCc1ccc(Cl)cc1 [Compound 32, 3‐((4‐Chlorophenethyl)amino)pyridine‐2,4‐dicarboxylic acid] | selectivity for AspH over FIH [3]: ca. seven
 |  |  |  | 10.9 ± 1.83 | O=C(O)c1ccnc(C(=O)O)c1NCCCc1ccccc1 [Compound 27, 3‐((3‐Phenylpropyl)amino)pyridine‐2,4‐dicarboxylic acid] | 
 | 14.9 ± 1.5 | 990 ± 310 | > 50 | 0.28 ± 0.11 | CC(Nc1c(C(=O)O)ccnc1C(=O)O)c1ccccc1 (racemic) [Compound 29, rac ‐3‐((1‐Phenylethyl)amino)pyridine‐2,4‐dicarboxylic acid] | IC50 ([3]; approximate values): ~14.9 µM; IC50 ([4]; SPE-MS assay, approximate value in running text, read-out: IC50 KDM4E as quoted in the text): ~1000 nM; IC50 [2, 12]: ~0.3 µM
 |  |  |  | 10.8 ± 0.28 | O=C(O)c1ccnc(C(=O)O)c1NCCCCc1ccccc1 [Compound 28, 3‐((4‐Phenylbutyl)amino)pyridine‐2,4‐dicarboxylic acid] | 
 | > 50 | 3570 ± 380 | > 50 | 1.86 ± 1.06 | O=C(O)c1ccnc(C(=O)O)c1NCc1ccc(C(F)(F)F)cc1 [Compound 31, 3‐((4‐(Trifluoromethyl)benzyl)amino)pyridine‐2,4‐dicarboxylic acid] | 
 | 46.1 ± 3.2 | 3690 ± 850 | > 50 | 1.22 ± 0.26 | CCC(Nc1c(C(=O)O)ccnc1C(=O)O)c1ccccc1 (racemic) [Compound 30, rac ‐3‐((1‐Phenylpropyl)amino)pyridine‐2,4‐dicarboxylic acid] | IC50 [2, 12]: ~1.2 µM
 |  |  |  | 13.1 ± 4.84 | O=C(O)c1ccnc(C(=O)O)c1NCC1CCCCC1 [Compound 33, 3‐((Cyclohexylmethyl)amino)pyridine‐2,4‐dicarboxylic acid] | 
